Source: patent publication US11072630B2, “Fluorinated and alkylated bile acids” (Metselex, Inc., priority 2015, dated 2021)

Legend:
primary rat hepatocytes [1] = assay: DCA-induced cytotoxicity, LDH release assay; conditions: for inhibition of DCA-induced LDH release: 100 μM bile acid, 50 μM DCA
Description: (§1) Primary rat hepatocytes were incubated with 100 μM UDCA, methylated UDCA, or no addition (control) for 12 h. Cells were then exposed to 50 μM DCA for 40 h before processing for cytotoxicity activity, including LDH (top), and adenylate kinase (middle) assays, and cell viability (bottom).
(§2) Briefly, rats were anesthetized with phenobarbital sodium (100 mg/kg body weight) injected into the peritoneal cavity. After administration of heparin (200 units/kg body weight) in the tail vein, the abdomen was opened and the portal vein exposed and cannulated. The liver was then perfused at 37° C. in situ with a calcium-free Hanks' Balanced Salt Solution (HBSS) for 10 min, and then with 0.05% collagenase type IV in calcium-present HBSS for another 10 min.
Hepatocyte suspensions were obtained by passing collagenase-digested livers through 125 μm gauze and washing cells in Complete William's E medium (William's E medium, Sigma-Aldrich Corp., St Louis, Mo., USA) supplemented with 26 mM sodium bicarbonate, 23 mM HEPES, 0.01 units/mL insulin, 2 mM L-glutamine, 10 nM dexamethasone, 100 units/mL penicillin, and 10% heat-inactivated fetal bovine serum (Invitrogen Corp., Carlsbad, Calif., USA). Viable primary rat hepatocytes were enriched by low-speed centrifugation at 200 g for 3 min. Cell viability was determined by trypan blue exclusion and was typically 80-85%. After isolation, hepatocytes were ressuspended in Complete William's E medium and plated on Primaria™ tissue culture dishes (BD Biosciences, San Jose, Calif., USA) at 5×10^4 cells/cm2.
Cells were maintained at 37° C. in a humidified atmosphere of 5% CO2 for 6 h, to allow attachment. […]
General cell death or cytotoxicity was evaluated using the lactate dehydrogenase (LDH) Cytotoxicity Detection KitPLUS (Roche Diagnostics GmbH, Mannheim, Germany), following the manufacturer's instructions. […] Finally, absorbance was measured at 490 nm, with 620 nm as reference, using a Bio-Rad model 680 microplate reader (Bio-Rad Laboratories, Hercules, Calif., USA).

primary rat hepatocytes [2] = assay: DCA-induced loss of cell viability (CellTiter-Fluor Cell Viability Assay); type: cell-based; conditions: pretreatment with 100 μM bile acid, 50 μM DCA
Description: as §1
(§3) Briefly, rats were anesthetized with phenobarbital sodium (100 mg/kg body weight) injected into the peritoneal cavity. After administration of heparin (200 units/kg body weight) in the tail vein, the abdomen was opened and the portal vein exposed and cannulated. […]
(§4) Hepatocyte suspensions were obtained by passing collagenase-digested livers through 125 μm gauze and washing cells in Complete William's E medium (William's E medium, Sigma-Aldrich Corp., St Louis, Mo., USA) supplemented with 26 mM sodium bicarbonate, 23 mM HEPES, 0.01 units/mL insulin, 2 mM L-glutamine, 10 nM dexamethasone, 100 units/mL penicillin, and 10% heat-inactivated fetal bovine serum (Invitrogen Corp., Carlsbad, Calif., USA). […] Cell viability was determined by trypan blue exclusion and was typically 80-85%. […]
(§5) General cell death was also determined using a bioluminescent cytolysis assay, designed to measure the release of adenylate kinase (AK) enzyme from damaged cells (ToxiLight™ BioAssay Kit, Lonza). […]

primary rat hepatocytes [3] = assay: Cytotoxicity of the bile acids alone in primary cultures of rat hepatocytes; conditions: bile acid alone
Text: MTS is bioreduced by cells into a formazan product that is soluble in tissue culture medium. […] The quantity of formazan product as measured by the amount of 490 nm absorbance is directly proportional to the number of living cells in culture.

primary rat hepatocytes [4] = assay: TGF-β1-induced loss of cell viability (MTS activity); type: cell-based; conditions: 100 μM for 12 h, then 1 nM TGF-β1 for 36 h
Description: FIG. 5. […] Primary rat hepatocytes were pre-incubated with 100 μM methylated UDCA, or no addition (control) for 12 h. Cells were then exposed to 1 nM TGF-β1 for 36 h before processing for MTS activity.

primary rat hepatocytes [5] = assay: Cell viability with the bile acids alone in primary cultures of rat hepatocytes; type: cell-based; conditions: bile acid alone
Description: as §2
Hepatocyte suspensions were obtained by passing collagenase-digested livers through 125 μm gauze and washing cells in Complete William's E medium (William's E medium, Sigma-Aldrich Corp., St Louis, Mo., USA) supplemented with 26 mM sodium bicarbonate, 23 mM HEPES, 0.01 units/mL insulin, 2 mM L-glutamine, 10 nM dexamethasone, 100 units/mL penicillin, and 10% heat-inactivated fetal bovine serum (Invitrogen Corp., Carlsbad, Calif., USA). Viable primary rat hepatocytes were enriched by low-speed centrifugation at 200 g for 3 min. Cell viability was determined by trypan blue exclusion and was typically 80-85%. […]
General cell death was also determined using a bioluminescent cytolysis assay, designed to measure the release of adenylate kinase (AK) enzyme from damaged cells (ToxiLight™ BioAssay Kit, Lonza). […] The absorbance of the formazan at 490 nm can be measured directly from 96-well assay plates without additional processing. […]

primary rat hepatocytes [6] = assay: DCA-induced cytotoxicity, adenylate kinase release (ToxiLight Assay); type: cell-based; conditions: 100 μM bile acid, cells exposed to 50 μM DCA
Description: as §1, §3, §4, §5

SMILES | inhibition of DCA-induced LDH release (primary rat hepatocytes [1]) [%] | rescue of cell viability in cells exposed to DCA (primary rat hepatocytes [2]) | cytotoxicity (primary rat hepatocytes [3]; 200 and 400 μM concentrations) | cytotoxicity (primary rat hepatocytes [3]; concentrations up to 100 μM) | inhibition of TGF-β1-induced reduction in MTT metabolism / loss of cell viability (primary rat hepatocytes [4]) | inhibition of TGF-β1-induced reduction in MTT metabolism / loss of cell viability (primary rat hepatocytes [4]; listed as Methylated UDCA) | cell viability (primary rat hepatocytes [5]; from 10 to 100 μM concentrations) | viability (primary rat hepatocytes [5]; highest bile acid concentrations (200 and 400 μM)) | prevention of DCA-induced cytotoxicity (FIG. 4 legend) (primary rat hepatocytes [1]; 100 μM for 12 h, then 50 μM DCA for 40 h, LDH and adenylate kinase assays) | protection against DCA-induced adenylate kinase release (ToxiLight Assay) (primary rat hepatocytes [6])
C[C@H](CCC(=O)O)[C@H]1CC[C@H]2[C@@H]3[C@@H](O)C[C@@H]4C[C@H](O)CC[C@]4(C)[C@H]3CC[C@]12C [UDCA, ursodeoxycholic acid, reference compound] | ~70 |  |  |  |  |  |  |  |  | 
CO[C@H]1C[C@@H]2C[C@H](O)CC[C@]2(C)[C@H]2CC[C@]3(C)[C@@H]([C@H](C)CCC(=O)O)CC[C@H]3[C@H]12 [methylated UDCA, 3α-hydroxy,7β-methoxy-5β-cholan-24-oic acid] | ~70 | effective at rescuing cell viability | an increase in cytotoxicity was evident | remained largely unchanged | effective at inhibiting TGF-β1-induced reduction in MTT metabolism | prevents TGF-β1-induced loss of cell viability | tended to increase cell viability | decreased viability | prevents DCA-induced cytotoxicity | slightly better protection
